The nature of data set [1]: AUC (0 to 24 hrs) in rat at 10 mg/kg, po. The class given is ADME, organism-based. Also on record: time < 24 hr, dose 10 mg/kg, route oral. As to conditions: in vivo.
In data set [2] the test system is Hepatitis C virus. In words: Antiviral activity against HCV1a by replicon assay. The class given is functional, organism-based, Hepacivirus hominis. The note with it: subtype 1a. A general note: In antiviral work, replicon cells carry a viral genome segment that copies itself.
Data set [3] is described as follows: Ratio of drug level in liver to plasma in rat at 10 mg/kg, po after 6 hrs. It is filed as ADME, organism-based.
The nature of data set [4]: AUC (0 to 24 hrs) in rat at 5 mg/kg, iv. It is filed as ADME, organism-based. Also on record: dose 5 mg/kg, time < 24 hr, route intravenous. As to conditions: in vivo.
A short description of data set [5]: AUC (0 to 24 hrs) in cynomolgus monkey at 3 mg/kg, po. Also on record: dose 3 mg/kg, time < 24 hr, route oral. It is filed as ADME, organism-based, Macaca fascicularis. The note with it: in vivo.
Data set [6] has as its system Hepatitis C virus. In words: Antiviral activity against HCV1b by replicon assay in presence of 40% human serum. The class given is functional, organism-based, Hepacivirus hominis. The note with it: genotype 1b.
The nature of data set [7]: Oral bioavailability in dog at 3 mg/kg. It is filed as ADME, organism-based, Canis lupus familiaris. As to conditions: in vivo.
A short description of data set [8]: Ratio of drug level in liver to plasma in rat at 10 mg/kg, po after 48 hrs. The class given is ADME, organism-based.
Data set [9] is described as follows: Oral bioavailability in cynomolgus monkey at 3 mg/kg. The note with it: in vivo. It is filed as ADME, organism-based, Macaca fascicularis.
A short description of data set [10]: AUC (0 to 24 hrs) in cynomolgus monkey at 1 mg/kg, iv. The class given is ADME, organism-based, Macaca fascicularis. Also on record: time < 24 hr, dose 1 mg/kg, route intravenous. The note with it: in vivo.
Data set [11] can be described thus: Oral bioavailability in rat at 10 mg/kg. As to conditions: in vivo. The class given is ADME, organism-based.
A short description of data set [12]: Solubility in mid-range pH solutions. It is filed as physicochemical.
Data set [13] can be described thus: AUC (0 to 24 hrs) in dog at 1 mg/kg, iv. The class given is ADME, organism-based, Canis lupus familiaris. Set-up: dose 1 mg/kg, time < 24 hr, route intravenous. As to conditions: in vivo.
Data set [14] in a line: AUC (0 to 24 hrs) in dog at 3 mg/kg, po. The class given is ADME, organism-based, Canis lupus familiaris. Also on record: time < 24 hr, dose 3 mg/kg, route oral. As to conditions: in vivo.

On to `COc1ccc2c(c1)[C@@H]1C[C@]1(C(=O)N1C3CCC1CN(C)C3)Cn1c-2c(C2CCCCC2)c2ccc(C(=O)NS(=O)(=O)C(C)C)cc21`, for which the AUC(0-t) at 24 h in data set [1] was determined as 16 µM·h; in [4] it was 18 µM·h; in data set [5], 5.4 µM·h; in data set [10], 7 µM·h; in data set [13] it was 36 µM·h; in data set [14], 124 µM·h. The EC50 in the data set with Hepatitis C virus [2] is 7 nM; with Hepatitis C virus [6], 20 nM. In addition, the Kp at 6 h in [3] turned out to be 20. In addition, the values for the bioavailability in data set [7], in [9] and in [11] were 100%, 25% and 65%, respectively. Also, in data set [8], the Kp at 48 h amounted to 11. Besides, the solubility entry in [12] was “soluble”.

The term AUC(0-t) denotes exposure summed from dosing to a finite time, without extrapolation to infinity. Usually EC50 stands for the midpoint of the concentration-response curve. By Kp is commonly meant tissue or fluid exposure divided by exposure in the circulation. The term bioavailability denotes the share of a dose that reaches the circulation, judged against a reference dose that is usually intravenous.

The values are drawn from ChEMBL document CHEMBL3758092, “Discovery and preclinical evaluation of potent, orally bioavailable, metabolically stable cyclopropylindolobenzazepine acylsulfonamides as thumb site 1 inhibitors of the hepatitis c virus NS5B RNA-dependent, RNA polymerase” (Bioorg Med Chem Lett, 2016).
